From PubChem BioAssay (NCI) come the findings set out here.

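Each compound was tested at five concentrations against cells in 96-well plates for 48 hours. At the TGI there is no net growth.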 Some results are limits rather than exact numbers.

Some test systems named below: CCRF-CEM leukemia; HCT-15 colon; SF-295 CNS; A549 NSCLC; SN12C renal; COLO 205 colon; HS 578T breast; LOX IMVI melanoma; SK-MEL-5 melanoma; SF-268 CNS; SK-MEL-2 melanoma; HT29 colon; SR leukemia; SNB-19 CNS; RPMI-8226 leukemia; PC-3 prostate; KM12 colon; U251 CNS; NCI-H226 lung; NCI-H522 lung.
Holding throughout (test): inhibition of tumour cell growth, NCI panel, 48 h

On to `CCCNC(=O)Cn1c2c(c3ccccc31)CCCC2`, for which the TGI with CCRF-CEM leukemia, in the assay with HCT-15 colon, with SF-295 CNS, in the assay with A549 NSCLC, with SN12C renal and with COLO 205 colon was more than 100 µM throughout. Moreover, the TGI in the assay with HS 578T breast is 68.8 µM; in the assay on LOX IMVI melanoma it was more than 100 µM; in the assay with SK-MEL-5 melanoma it was more than 100 µM; with SF-268 CNS, more than 100 µM; in the assay with SK-MEL-2 melanoma, more than 100 µM; in the assay on HT29 colon, more than 100 µM. In addition, the TGI with SR leukemia, in the assay with SNB-19 CNS, with RPMI-8226 leukemia and in the assay with PC-3 prostate was more than 100 µM throughout.
In the case of `COc1ccc(/C(=N/OCCCC(=O)O)c2cccs2)cc1`, the TGI with CCRF-CEM leukemia, in the assay with HCT-15 colon, in the assay with SF-295 CNS, with KM12 colon, in the assay with A549 NSCLC and in the assay on SN12C renal was more than 100 µM throughout. For the same molecule, the TGI with COLO 205 colon, with HS 578T breast, in the assay with U251 CNS, in the assay on LOX IMVI melanoma, in the assay with SK-MEL-5 melanoma and in the assay on SF-268 CNS was more than 100 µM each time. Also, the TGI in the assay with SK-MEL-2 melanoma, in the assay with NCI-H226 lung, in the assay on HT29 colon, in the assay on SNB-19 CNS, in the assay on RPMI-8226 leukemia and with PC-3 prostate was more than 100 µM throughout.
Turning to `Cc1ccc(N2C=Nn3c(nc4sc5c(c4c3=O)CCCC5)C2)cc1`, the TGI in the assay on CCRF-CEM leukemia, in the assay on HCT-15 colon, in the assay on SF-295 CNS, with KM12 colon, in the assay with NCI-H522 lung and in the assay with A549 NSCLC was more than 100 µM in each case. The TGI is more than 100 µM in the assay with SN12C renal; more than 100 µM in the assay on COLO 205 colon; 92 µM in the assay with HS 578T breast; more than 100 µM in the assay on U251 CNS; more than 100 µM in the assay with LOX IMVI melanoma; more than 100 µM in the assay with SK-MEL-5 melanoma. Moreover, the TGI with SF-268 CNS, in the assay on SK-MEL-2 melanoma, with NCI-H226 lung, with HT29 colon, in the assay with SNB-19 CNS and with RPMI-8226 leukemia was more than 100 µM throughout. In the assay with PC-3 prostate, this molecule had a TGI of more than 100 µM.
In the case of `CC1(C)CC[C@]2(C)[C@@H](O)C[C@]3(C)C(=CC[C@@H]4[C@@]5(C)CC[C@H](O)C(C)(C)[C@@H]5CC[C@]43C)[C@@H]2C1`, the TGI in the assay on CCRF-CEM leukemia, with HCT-15 colon, in the assay on SF-295 CNS, in the assay on KM12 colon, in the assay on NCI-H522 lung and in the assay on A549 NSCLC was more than 100 µM throughout. For the same molecule, the TGI was more than 100 µM with SN12C renal; more than 100 µM in the assay on COLO 205 colon; 99.3 µM in the assay on HS 578T breast; more than 100 µM in the assay with U251 CNS; 46.1 µM in the assay with LOX IMVI melanoma; more than 100 µM with SK-MEL-5 melanoma. Moreover, the TGI in the assay with SF-268 CNS was more than 100 µM; in the assay on SK-MEL-2 melanoma it was 80.7 µM; in the assay on NCI-H226 lung it was more than 100 µM; in the assay on HT29 colon, more than 100 µM; in the assay with SNB-19 CNS, more than 100 µM; in the assay with PC-3 prostate, more than 100 µM.
For `Nc1nncc2n[nH]nc12`, the TGI in the assay on CCRF-CEM leukemia, in the assay on HCT-15 colon, with SF-295 CNS, with KM12 colon, in the assay on A549 NSCLC and in the assay on SN12C renal was more than 100 µM in each case. The TGI with COLO 205 colon was more than 100 µM; in the assay on HS 578T breast it was more than 100 µM; with U251 CNS it was more than 100 µM; in the assay on SK-MEL-5 melanoma, 30.7 µM; in the assay with SF-268 CNS, more than 100 µM; with SK-MEL-2 melanoma, more than 100 µM. Also, the TGI with NCI-H226 lung, in the assay with HT29 colon, in the assay with SR leukemia, in the assay with SNB-19 CNS, in the assay on RPMI-8226 leukemia and with PC-3 prostate was more than 100 µM throughout.
For the molecule `C1=C2C3=[N+](CCCC3)CC2Cc2sccc21` (stereo not drawn), the TGI in the assay with CCRF-CEM leukemia, with HCT-15 colon, in the assay on SF-295 CNS, in the assay with KM12 colon, with NCI-H522 lung and in the assay on A549 NSCLC was more than 100 µM in each case. Further, the TGI in the assay on SN12C renal, in the assay on COLO 205 colon, in the assay on HS 578T breast, with U251 CNS, in the assay on LOX IMVI melanoma and in the assay on SK-MEL-5 melanoma was more than 100 µM throughout. The TGI in the assay on SF-268 CNS, with SK-MEL-2 melanoma, with NCI-H226 lung, with HT29 colon, with SNB-19 CNS and in the assay with PC-3 prostate was more than 100 µM each time.
Take `COC(=O)[C@H](Cc1ccccc1)NC(=O)OCC1OC(n2cc(C)c(=O)[nH]c2=O)CC1N=[N+]=[N-]` (stereo partly drawn): the TGI in the assay on CCRF-CEM leukemia, in the assay with HCT-15 colon, in the assay with SF-295 CNS, with KM12 colon, in the assay on NCI-H522 lung and in the assay on A549 NSCLC was more than 100 µM in each case. The TGI in the assay with SN12C renal, in the assay with COLO 205 colon, in the assay with HS 578T breast, in the assay on U251 CNS, in the assay with LOX IMVI melanoma and in the assay on SK-MEL-5 melanoma was more than 100 µM each time. Further, the TGI with SF-268 CNS, in the assay with SK-MEL-2 melanoma, in the assay with NCI-H226 lung, in the assay on HT29 colon, in the assay with SNB-19 CNS and in the assay on RPMI-8226 leukemia was more than 100 µM throughout. In the assay on PC-3 prostate, the TGI was more than 100 µM.
Regarding `COC(=O)c1ccc(NCC2=CC(=O)C=CC2=O)cc1O`, the TGI was more than 100 µM with CCRF-CEM leukemia; 34.5 µM in the assay on HCT-15 colon; 32.3 µM with SF-295 CNS; more than 100 µM with A549 NSCLC; 66.5 µM in the assay on SN12C renal; 31.4 µM with COLO 205 colon. The TGI with HS 578T breast is more than 100 µM; with U251 CNS, more than 100 µM; with LOX IMVI melanoma it was 37.5 µM; in the assay on SK-MEL-5 melanoma, 80.1 µM; in the assay with SF-268 CNS it was more than 100 µM; in the assay on SK-MEL-2 melanoma, more than 100 µM. Further, the TGI was 44.7 µM in the assay with NCI-H226 lung; 38.6 µM with HT29 colon; more than 100 µM in the assay with SR leukemia; 48.3 µM in the assay on SNB-19 CNS; more than 100 µM in the assay with PC-3 prostate.
